One assay addresses T1, KDM5A (Homo sapiens, UniProt P29375).
T1 construct: Full length KDM5A enzyme was expressed and purified inhouse; made in house
Briefly: KDM5 enzyme assay, KDM5A HTRF (Example 463).
Conditions: not given
Format: biochemical.
T1 sequence (P29375 whole entry): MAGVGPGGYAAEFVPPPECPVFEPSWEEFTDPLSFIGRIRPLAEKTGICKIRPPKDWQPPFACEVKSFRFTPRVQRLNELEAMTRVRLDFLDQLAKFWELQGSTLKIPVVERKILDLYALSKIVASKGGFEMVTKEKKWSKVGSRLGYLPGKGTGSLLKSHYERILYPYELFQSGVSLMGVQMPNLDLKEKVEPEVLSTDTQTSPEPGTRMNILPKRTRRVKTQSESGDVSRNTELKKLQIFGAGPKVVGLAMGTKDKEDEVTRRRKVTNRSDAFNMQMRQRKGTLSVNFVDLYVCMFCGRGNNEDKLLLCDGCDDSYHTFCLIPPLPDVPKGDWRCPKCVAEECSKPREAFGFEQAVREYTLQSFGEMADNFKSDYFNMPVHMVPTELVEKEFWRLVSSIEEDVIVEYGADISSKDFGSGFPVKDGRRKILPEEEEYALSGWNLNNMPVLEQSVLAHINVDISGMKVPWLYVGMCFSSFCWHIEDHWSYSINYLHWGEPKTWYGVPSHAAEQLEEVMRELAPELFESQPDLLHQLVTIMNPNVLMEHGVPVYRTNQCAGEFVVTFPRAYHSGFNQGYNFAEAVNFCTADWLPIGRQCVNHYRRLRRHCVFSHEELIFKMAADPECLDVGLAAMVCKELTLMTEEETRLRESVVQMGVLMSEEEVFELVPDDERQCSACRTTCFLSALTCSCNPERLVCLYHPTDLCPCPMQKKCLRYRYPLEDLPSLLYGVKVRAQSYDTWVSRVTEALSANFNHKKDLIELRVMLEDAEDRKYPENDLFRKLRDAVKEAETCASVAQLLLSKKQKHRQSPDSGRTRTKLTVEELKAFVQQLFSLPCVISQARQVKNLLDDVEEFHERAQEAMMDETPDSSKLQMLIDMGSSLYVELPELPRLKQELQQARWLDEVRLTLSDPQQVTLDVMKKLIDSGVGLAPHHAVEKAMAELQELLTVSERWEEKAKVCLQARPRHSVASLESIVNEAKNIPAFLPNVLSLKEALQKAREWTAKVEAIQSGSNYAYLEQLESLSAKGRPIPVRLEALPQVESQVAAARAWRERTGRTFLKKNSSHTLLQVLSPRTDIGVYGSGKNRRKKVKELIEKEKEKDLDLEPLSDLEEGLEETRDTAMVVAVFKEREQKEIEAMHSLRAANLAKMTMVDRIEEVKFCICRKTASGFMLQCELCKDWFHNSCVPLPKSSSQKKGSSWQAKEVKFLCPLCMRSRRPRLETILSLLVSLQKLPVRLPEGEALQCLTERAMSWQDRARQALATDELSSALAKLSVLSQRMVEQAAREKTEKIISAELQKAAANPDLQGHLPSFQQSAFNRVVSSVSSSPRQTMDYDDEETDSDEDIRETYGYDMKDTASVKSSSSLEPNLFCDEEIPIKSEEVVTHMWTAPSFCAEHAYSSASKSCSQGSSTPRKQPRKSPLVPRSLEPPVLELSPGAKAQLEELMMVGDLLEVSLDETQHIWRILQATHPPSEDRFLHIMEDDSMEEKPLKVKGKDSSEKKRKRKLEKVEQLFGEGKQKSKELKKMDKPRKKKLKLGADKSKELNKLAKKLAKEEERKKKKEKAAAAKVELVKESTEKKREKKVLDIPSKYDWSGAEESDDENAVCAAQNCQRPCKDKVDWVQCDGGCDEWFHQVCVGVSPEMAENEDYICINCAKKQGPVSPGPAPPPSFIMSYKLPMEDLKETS
For orientation: IC50 means the concentration needed to halve the response being measured. The compound `C=C(C)c1c(-c2ccccc2)[nH]c2c(C#N)cnn2c1=O` [Example 224] came in with an IC50 of 25 nM.

The same assay, now with this note: compounds of Examples 1-432; read-out: Example 463 Assay KDM5A HTRF IC50.
Consider `N#Cc1cnn2c(=O)c(C3CCC3)c(-c3cnn(C4CCCCC4)c3)[nH]c12` [Example 36, 6-Cyclobutyl-5-(1-cyclohexylpyrazol-4-yl)-7-oxo-4H-pyrazolo[1,5-a]pyrimidine-3-carbonitrile], for which the concentration for half-maximal inhibition (IC50) was found to be 10.4 nM.

`CC(C)c1c(-c2cccc(CCN3CCOCC3)c2)[nH]c2c(C#N)cnn2c1=O` [Example 247]: the IC50 came out at 15 nM.

`COCC(C)(C)n1cc(-c2[nH]c3c(C#N)cnn3c(=O)c2C(C)C)cn1` [Compound 390]: the half-maximal inhibitory concentration (IC50) worked out at 55 nM.

In the case of `CC(C)c1c(-c2ccc(Oc3ccccc3)nc2)[nH]c2c(C#N)cnn2c1=O` [Example 276], the IC50 was 35 nM.

Regarding `CC(C)c1c(Nc2ccccc2)[nH]c2c(C#N)cnn2c1=O` [Example 47, 6-isopropyl-7-oxo-5-(phenylamino)-4,7-dihydropyrazolo[1,5-a]pyrimidine-3-carbonitrile], the IC50 is 24 nM.

With `Cc1n[nH]cc1-c1[nH]c2c(C#N)cnn2c(=O)c1C(C)C` [Example 323], the half-inhibitory concentration (IC50) came to 31 nM.

In the case of `CC(C)c1c(C2=CCNCC2)[nH]c2c(C#N)cnn2c1=O` [Example 320], the IC50 worked out at 20 nM.

Regarding `CC(C)c1c(-c2cnn(CCF)c2)[nH]c2c(C#N)cnn2c1=O` [Compound 352], the IC50 came out at 27 nM.

With `CC(=O)N1CCN(c2ccc(-c3[nH]c4c(C#N)cnn4c(=O)c3C(C)C)cc2)CC1` [Compound 377], the IC50 amounted to 22 nM.

On to `CC(C)c1c(-c2cccc(S(C)(=O)=O)c2)[nH]c2c(C#N)cnn2c1=O` [Example 308], for which the IC50 was 17 nM.

On to `CC(C)c1c(-c2cccc(CCN(C)C)c2)[nH]c2c(C#N)cnn2c1=O` [Example 248], for which the IC50 is 69 nM.

`CCc1c(-c2cccc(N3CCCC3=O)c2)[nH]c2c(C#N)cnn2c1=O` [Compound 421]: the half-maximal inhibitory concentration (IC50) was 19 nM.

Regarding `CCc1c[nH]c2c(C#N)cnn2c1=O` [Example 20, 6-Ethyl-7-oxo-4,7-dihydropyrazolo[1,5-a]pyrimidine-3-carbonitrile], the IC50 came to 37 nM.

For the compound `CC(C)c1c(Cl)[nH]c2c(C#N)cnn2c1=O` [Example 1, 5-chloro-6-isopropyl-7-oxo-4,7-dihydropyrazolo[1,5-a]pyrimidine-3-carbonitrile], the IC50 amounted to 4.3 nM.

For the compound `N#Cc1cnn2c(=O)c(C3CCC3)c(-c3ccccc3)[nH]c12` [Example 34, 6-Cyclobutyl-7-oxo-5-phenyl-4H-pyrazolo[1,5-a]pyrimidine-3-carbonitrile], the IC50 was determined as 9.5 nM.

In the case of `CC(C)c1c(-c2cnn(Cc3cncs3)c2)[nH]c2c(C#N)cnn2c1=O` [Example 329], the IC50 worked out at 11 nM.

With `C=C(C)c1c(C(C)C)c(=O)n2ncc(C#N)c2n1C` [Example 180], the IC50 was determined as 61 nM.

With `COc1ccc(-c2[nH]c3c(C#N)cnn3c(=O)c2C(C)C)cc1CO` [Example 209], the IC50 is 18 nM.

For `CNS(=O)(=O)c1ccc(-c2cccc(-c3[nH]c4c(C#N)cnn4c(=O)c3C(C)C)c2)cc1` [Compound 430], the IC50 was determined as 32 nM.

Consider `CC(C)c1c(C2=CCOC2)n(C)c2c(C#N)cnn2c1=O` [Example 170], for which the IC50 was found to be 210 nM.

`CC(C)c1c(-c2ccn(C(=O)C3CC3)n2)[nH]c2c(C#N)cnn2c1=O` [Example 110]: the IC50 was found to be 7 nM.

As to `C#CCc1c(-c2ccccc2)[nH]c2c(C#N)cnn2c1=O` [Example 37, 7-Oxo-5-phenyl-6-(prop-2-yn-1-yl)-4,7-dihydropyrazolo[1,5-a]pyrimidine-3-carbonitrile], the IC50 is 24 nM.

As to `CC(C)c1c(-c2cc(C3CC3)nn2C(C)C)[nH]c2c(C#N)cnn2c1=O` [Compound 407], the half-inhibitory concentration (IC50) worked out at 48 nM.

With `CC(C)c1c(-c2ccnc(C(F)(F)F)c2)[nH]c2c(C#N)cnn2c1=O` [Example 275], the IC50 stood at 34 nM.

In the case of `N#Cc1cnn2c(=O)c(CC(F)F)c(-c3ccccc3)[nH]c12` [Example 33, 6-(2,2-Difluoroethyl)-7-oxo-5-phenyl-4H-pyrazolo[1,5-a]pyrimidine-3-carbonitrile], the concentration for half-maximal inhibition (IC50) is 9.3 nM.

Consider `Cc1c(-c2[nH]c3c(C#N)cnn3c(=O)c2C(C)C)cnn1C(C)C` [Compound 403], for which the IC50 was determined as 57 nM.

As for `CC(C)c1c(-c2cnn(C3CCC3)c2)[nH]c2c(C#N)cnn2c1=O` [Example 106], the IC50 was found to be 18 nM.

Take `CC(C)c1c(-c2ccc(C(C)(C)O)cc2)[nH]c2c(C#N)cnn2c1=O` [Example 274]: the IC50 was found to be 73 nM.

Consider `CNC(=O)c1ccc(-c2[nH]c3c(C#N)cnn3c(=O)c2C(C)C)cc1F` [Compound 369], for which the IC50 amounted to 85 nM.

Turning to `CC(=O)Nc1cccc(-c2[nH]c3c(C#N)cnn3c(=O)c2C(C)C)c1` [Compound 374], the IC50 stood at 38 nM.

Turning to `Cc1nn(C(C)C)cc1-c1[nH]c2c(C#N)cnn2c(=O)c1C(C)C` [Compound 402], the IC50 was found to be 58 nM.

Consider `CC(C)c1c(C2=CCN(C)CC2)[nH]c2c(C#N)cnn2c1=O` [Example 240], for which the IC50 was 50 nM.

Take `CCc1c(-c2cnn(Cc3ccccc3)c2)[nH]c2c(C#N)cnn2c1=O` [Example 71]: the IC50 was determined as 4.5 nM.

For the compound `CC(C)c1c(-c2ccc(N3CCN(C(=O)OC(C)(C)C)CC3)cc2)[nH]c2c(C#N)cnn2c1=O` [Example 306], the IC50 amounted to 200 nM.

For the compound `Cc1ccc(-c2[nH]c3c(C#N)cnn3c(=O)c2C(C)C)o1` [Example 86], the IC50 amounted to 4.5 nM.

As to `COc1ccc(-c2[nH]c3c(C#N)cnn3c(=O)c2C(C)C)cc1OC` [Example 143], the IC50 stood at 25 nM.

Turning to `COc1ccc(Cn2cc(-c3[nH]c4c(C#N)cnn4c(=O)c3C(C)C)cn2)cc1` [Example 116], the IC50 is 8 nM.

Turning to `CC(C)c1c(-c2ccc(CN3CCOCC3)cc2)[nH]c2c(C#N)cnn2c1=O` [Example 310], the IC50 is 19 nM.

For `CC(C)c1c(-c2cccs2)[nH]c2c(C#N)cnn2c1=O` [Example 84], the IC50 came to 8.3 nM.

For `CC(C)c1c(-c2ccc(C(=O)N3CCOCC3)cc2)[nH]c2c(C#N)cnn2c1=O` [Compound 376], the IC50 was 19 nM.

Turning to `CC(C)c1c(-c2ccn[nH]2)[nH]c2c(C#N)cnn2c1=O` [Example 80], the IC50 was determined as 6.8 nM.

In the case of `CC(C)c1c(-c2cnn(CCN3CCC(F)(F)C3)c2)[nH]c2c(C#N)cnn2c1=O` [Compound 371], the IC50 was found to be 11 nM.

As to `COc1cc(OC)cc(-c2[nH]c3c(C#N)cnn3c(=O)c2C(C)C)c1` [Example 261], the IC50 was found to be 31 nM.

`C=CS(=O)(=O)NCCn1cc(-c2[nH]c3c(C#N)cnn3c(=O)c2C(C)C)cn1` [Example 321]: the IC50 turned out to be 23 nM.

For `CC(C)c1c(NC(=O)C2CC2)[nH]c2c(C#N)cnn2c1=O` [Example 213], the IC50 was found to be 18 nM.

With `C/C=C/c1[nH]c2c(C#N)cnn2c(=O)c1C(C)C` [Compound 373], the IC50 was 24 nM.

As to `CCC(C)(C)n1cc(-c2[nH]c3c(C#N)cnn3c(=O)c2C(C)C)cn1` [Example 245], the IC50 was 46 nM.

`COc1cc(F)cc(-c2[nH]c3c(C#N)cnn3c(=O)c2C(C)C)c1` [Example 266]: the IC50 was determined as 29 nM.

Regarding `CCNC(=O)c1cccc(-c2[nH]c3c(C#N)cnn3c(=O)c2C(C)C)c1` [Example 281], the IC50 worked out at 32 nM.

`CC(C)c1c(-c2cnn(S(C)(=O)=O)c2)[nH]c2c(C#N)cnn2c1=O` [Example 93]: the IC50 came to 13 nM.

As for `CC(C)c1c(-c2ccc3c(c2)CCC3=O)[nH]c2c(C#N)cnn2c1=O` [Example 300], the IC50 is 18 nM.

For the compound `CC(C)c1c(C2=CCOC2)[nH]c2c(C#N)cnn2c1=O` [Example 82], the IC50 was determined as 12 nM.

In the case of `CC(C)c1c(-c2cnn(C(C)C)c2)[nH]c2c(C#N)cnn2c1=O` [Example 60], the IC50 came to 19 nM.

For `CC(C)c1c(-c2cnn(C(C)(C)CF)c2)[nH]c2c(C#N)cnn2c1=O` [Compound 396], the IC50 amounted to 34 nM.

As to `CC(C)c1c(-c2cnn(CC3CCCCC3)c2)[nH]c2c(C#N)cnn2c1=O` [Example 127], the IC50 was found to be 13 nM.

In the case of `CC(C)c1c(-c2cnn(CCNC(=O)OC(C)(C)C)c2)[nH]c2c(C#N)cnn2c1=O` [Example 318], the IC50 amounted to 21 nM.

Regarding `Cc1cc(-c2[nH]c3c(C#N)cnn3c(=O)c2C(C)C)ccc1C#N` [Example 299], the IC50 turned out to be 25 nM.

With `CC(C)c1c(-c2ccc(-c3ccccc3)cc2)[nH]c2c(C#N)cnn2c1=O` [Example 263], the IC50 was 28 nM.

With `C=C(C)c1[nH]c2c(C#N)cnn2c(=O)c1C(C)C` [Example 75], the IC50 was 10 nM.

`CC(C)c1c(-c2cnn(C(C)c3ccccc3)c2)[nH]c2c(C#N)cnn2c1=O` (stereo not drawn) [Example 105]: the IC50 worked out at 8 nM.

As to `C=CC(=O)N1CC=C(c2[nH]c3c(C#N)cnn3c(=O)c2C(C)C)CC1` [Example 239], the IC50 was determined as 21 nM.

With `CC(C)c1c(-c2cnn(CCN3CC(F)(F)C3)c2)[nH]c2c(C#N)cnn2c1=O` [Compound 370], the IC50 turned out to be 8 nM.

`Cn1c(-c2ccccc2)c(Br)c(=O)n2ncc(C#N)c12` [Example 218]: the IC50 came out at 8000 nM.

`CC(C)c1c(-c2cc(F)cc(C(N)=O)c2)[nH]c2c(C#N)cnn2c1=O` [Example 208]: the IC50 is 9 nM.

With `CCCn1cc(-c2[nH]c3c(C#N)cnn3c(=O)c2C(C)C)cn1` [Compound 364], the IC50 turned out to be 18 nM.

For `Cc1cc(Cl)cc(-c2[nH]c3c(C#N)cnn3c(=O)c2C(C)C)c1` [Example 307], the IC50 is 25 nM.

On to `CC(C)c1c(-c2cccc(-c3ccccc3)c2)n(C)c2c(C#N)cnn2c1=O` [Example 175], for which the IC50 was found to be 43 nM.

Regarding `CC(C)n1cc(-c2[nH]c3c(C#N)cnn3c(=O)c2C2CCC2)cn1` [Compound 431], the IC50 came out at 21 nM.

Turning to `CC(C)c1c(-c2cnn(C(=O)c3ccccc3)c2)[nH]c2c(C#N)cnn2c1=O` [Example 124], the IC50 is 11 nM.

With `CC(C)c1c(-c2cnn([C@H]3CC[C@@H](O)C3)c2)[nH]c2c(C#N)cnn2c1=O` [Compound 381], the IC50 was found to be 30 nM.

In the case of `CC(C)c1c(-c2ccc(C(N)=O)c(F)c2)[nH]c2c(C#N)cnn2c1=O` [Example 205], the IC50 was determined as 23 nM.
